SMILES strings stand for the structures.

For assay [1], the target named is T1, Glucocorticoid receptor (Homo sapiens, UniProt P04150).
T1 sequence (P04150 whole entry): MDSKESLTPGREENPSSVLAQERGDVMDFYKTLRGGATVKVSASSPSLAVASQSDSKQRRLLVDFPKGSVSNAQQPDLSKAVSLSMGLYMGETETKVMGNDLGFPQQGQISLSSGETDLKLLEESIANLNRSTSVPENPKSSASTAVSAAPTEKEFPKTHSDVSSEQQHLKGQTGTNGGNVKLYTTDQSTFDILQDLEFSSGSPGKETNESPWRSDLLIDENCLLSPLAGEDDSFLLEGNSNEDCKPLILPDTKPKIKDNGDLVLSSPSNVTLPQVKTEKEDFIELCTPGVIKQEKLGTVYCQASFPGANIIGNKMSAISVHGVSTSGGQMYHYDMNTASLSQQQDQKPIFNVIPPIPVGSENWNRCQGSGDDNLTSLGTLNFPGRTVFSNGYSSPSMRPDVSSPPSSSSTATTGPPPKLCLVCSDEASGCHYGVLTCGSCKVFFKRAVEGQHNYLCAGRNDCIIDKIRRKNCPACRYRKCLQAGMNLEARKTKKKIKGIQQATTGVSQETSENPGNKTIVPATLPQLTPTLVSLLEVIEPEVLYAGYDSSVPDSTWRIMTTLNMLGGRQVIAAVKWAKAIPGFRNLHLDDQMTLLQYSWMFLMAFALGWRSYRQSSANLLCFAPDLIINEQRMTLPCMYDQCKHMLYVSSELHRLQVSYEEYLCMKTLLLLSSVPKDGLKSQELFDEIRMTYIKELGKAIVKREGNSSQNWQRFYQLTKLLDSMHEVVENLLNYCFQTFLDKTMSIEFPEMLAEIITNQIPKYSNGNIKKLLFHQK
Description: Transcriptional activation in CV-1 cells expressing glucocorticoid receptor. In kind it is functional, cell-based.

The target in assay [2] is T1, Glucocorticoid receptor. Description: Transcriptional repression activity in HEP G2 cells expressing glucocorticoid receptor compared to Dexamethasone. In kind it is functional, cell-based, HepG2.
For assay [3], the target named is T2, Glucocorticoid receptor (Rattus norvegicus) (UniProt P06536).
T2 sequence (whole entry): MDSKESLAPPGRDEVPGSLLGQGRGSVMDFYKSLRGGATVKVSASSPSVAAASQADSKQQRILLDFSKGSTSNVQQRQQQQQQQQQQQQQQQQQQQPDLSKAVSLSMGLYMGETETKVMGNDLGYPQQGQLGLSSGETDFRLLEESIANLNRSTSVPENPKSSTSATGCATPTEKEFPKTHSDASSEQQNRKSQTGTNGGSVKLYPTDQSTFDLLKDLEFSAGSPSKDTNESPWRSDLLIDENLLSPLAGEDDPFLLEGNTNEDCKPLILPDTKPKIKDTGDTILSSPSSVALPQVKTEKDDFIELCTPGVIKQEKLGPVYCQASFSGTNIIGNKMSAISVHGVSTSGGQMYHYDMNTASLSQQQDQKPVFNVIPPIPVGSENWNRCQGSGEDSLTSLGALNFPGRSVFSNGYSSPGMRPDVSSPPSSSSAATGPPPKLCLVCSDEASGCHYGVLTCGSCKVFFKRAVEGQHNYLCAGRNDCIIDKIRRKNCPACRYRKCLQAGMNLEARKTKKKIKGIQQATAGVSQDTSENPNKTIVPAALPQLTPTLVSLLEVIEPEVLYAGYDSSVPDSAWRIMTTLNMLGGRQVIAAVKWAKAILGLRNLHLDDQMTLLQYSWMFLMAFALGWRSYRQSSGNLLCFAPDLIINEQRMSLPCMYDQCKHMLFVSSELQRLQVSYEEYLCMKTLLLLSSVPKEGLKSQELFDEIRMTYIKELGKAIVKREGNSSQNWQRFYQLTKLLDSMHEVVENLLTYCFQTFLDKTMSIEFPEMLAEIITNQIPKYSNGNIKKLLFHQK
Nature of the assay: Anti-asthmatic effect as eosinophil influx in rat lung model. In kind it is functional.

A further assay concerns the target T3, Progesterone receptor (Homo sapiens, UniProt P06401).
T3 sequence (P06401 whole entry): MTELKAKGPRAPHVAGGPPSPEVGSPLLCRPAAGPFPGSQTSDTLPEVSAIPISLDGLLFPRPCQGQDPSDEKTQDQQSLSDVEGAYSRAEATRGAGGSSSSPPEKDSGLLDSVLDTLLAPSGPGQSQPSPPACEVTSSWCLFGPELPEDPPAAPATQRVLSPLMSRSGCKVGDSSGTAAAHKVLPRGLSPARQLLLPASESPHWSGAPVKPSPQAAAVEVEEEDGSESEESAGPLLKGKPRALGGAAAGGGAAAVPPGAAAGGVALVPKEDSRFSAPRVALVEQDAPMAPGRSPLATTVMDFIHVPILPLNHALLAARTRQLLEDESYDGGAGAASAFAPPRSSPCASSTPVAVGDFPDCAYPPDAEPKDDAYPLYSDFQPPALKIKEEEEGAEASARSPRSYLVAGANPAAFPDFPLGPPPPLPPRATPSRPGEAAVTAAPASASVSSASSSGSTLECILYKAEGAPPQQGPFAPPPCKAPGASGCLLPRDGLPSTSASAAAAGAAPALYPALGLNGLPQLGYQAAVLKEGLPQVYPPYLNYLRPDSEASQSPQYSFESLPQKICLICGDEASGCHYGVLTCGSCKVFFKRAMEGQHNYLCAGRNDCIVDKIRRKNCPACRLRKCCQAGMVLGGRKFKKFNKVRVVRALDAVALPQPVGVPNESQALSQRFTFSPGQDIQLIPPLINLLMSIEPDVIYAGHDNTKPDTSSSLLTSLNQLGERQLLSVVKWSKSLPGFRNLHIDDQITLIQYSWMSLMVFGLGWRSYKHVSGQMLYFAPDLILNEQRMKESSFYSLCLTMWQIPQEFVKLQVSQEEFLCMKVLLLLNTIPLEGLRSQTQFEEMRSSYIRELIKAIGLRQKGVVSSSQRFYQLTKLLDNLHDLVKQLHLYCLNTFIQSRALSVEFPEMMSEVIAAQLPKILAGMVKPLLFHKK
Nature of the assay: Binding affinity for progesterone receptor.

As usually defined, the IC50 is the concentration needed to halve the response being measured. High values mean weaker potency in that assay, low ones greater potency in that assay. One may read the ED50 as the midpoint of the dose-response relation. Lower therefore signals an effect at a small dose. The term Ki denotes the dissociation constant of the complex between target and ligand, obtained from inhibition or displacement. A higher Ki goes with lower affinity. Turning to `COc1cccc2c1-c1ccc3c(c1C(c1cccc(OCSC)c1)O2)C(C)=CC(C)(C)N3` (centres undefined), the IC50 on Glucocorticoid receptor [1] worked out at 9 nM; against Glucocorticoid receptor [2], 4 nM. In assay [3], the ED50 was determined as 2.8 mg/kg. At Progesterone receptor, this molecule yielded a Ki greater than 5000 nM.
